Experimental findings from PMC9654571, “Water-Soluble Truncated Fatty Acid–Porphyrin Conjugates Provide Photo-Sensitizer Activity for Photodynamic Therapy in Malignant Mesothelioma” (Cancers, 2022) are described below.

Data set [1] relates to Met-5a cells. Kind of data set: Annexin V-FITC/PI cell death analysis by flow cytometry, Met-5a. The data set is classed as cell-based, human. Conditions: for EC50: Homo sapiens, read-out: EC50 (50% reduction in viable cell populations), PDT activity. The protocol: (§1) Cells were harvested in accordance with methods previously described and seeded into 24-well plates (Nunc, London, UK) at a density of 2 × 10^5 cells per well in 1000 μL of complete RPMI; the culture plates were seeded approximately 24 h before PDT. Cell treatment and irradiation was performed in accordance with methods previously described.
(§2) Annexin V-FITC/PI staining and cell death analysis was performed at both 24- and 48 h time points following PDT (representative flow cytometry dot-plots from Annexin V-FITC/PI-stained cells in Supplementary Materials-Figure S2). Non-adherent cells were harvested through the removal of culture medium and adherent monolayers were trypsinized and returned to the removed media. Harvested cells were removed from media via centrifugation (5 min, 400× g) (VWR Mega Star, Leicestershire, UK) and resuspended in Annexin V Binding Buffer. Following a second centrifugation, Annexin V Binding Buffer was discarded, and cell pellets were resuspended in the residual volume. Cells were stained with Annexin V-FITC (5 μL) and PI (10 μL) and incubated at room temperature for 15 min protected from light. 200 µL of Annexin V Binding Buffer was added prior to immediate analysis using a BD FACSCalibur (BD Biosciences, Wokingham, UK) and data from 10,000 events was collected. Flow cytometry results were analyzed using FlowJo™ v10.8 Software (BD Life Sciences). Quadrants consisted of Viable (Annexin V-FITC^−/PI^−), early stage apoptotic (Annexin V-FITC^+/PI^−) and late-stage apoptotic/necrotic (Annexin V-FITC^+/PI^+) populations.

Data set [2] can be described thus: WST-8 cell viability assay after PDT, NCI-H28. Format: cell-based, human. Conditions: human, NCI-H28 cells, NCI-H28, 5 μg/mL, dark, read-out: cell viability relative to untreated control. Here is the method: (§3) Porphyrin PS stock solutions 4, 5, and 6 (Scheme 1) were prepared by dissolving a 5 mg aliquot in 500 μL of 1 M NaOH. This was added to 9.5 mL of complete media to prepare a 500 μg/mL stock solution. Stock solutions were filter sterilized using a Millipore PES membrane filter (Merck, Watford, UK). Working solutions were prepared immediately before PDT experiments and consisted of six treatments: an untreated control, vehicle control, and four porphyrin concentrations (5, 10, 15, and 20 μg/mL).
(§4) Cells were detached using a trypsin/EDTA solution (Lonza). Trypan blue (0.4% v/v) exclusion was used to count viable cells before seeded into 96-well plates (Nunc) at a density of 5 × 10^3 cells per well in 200 μL of complete RPMI. Cell culture plates were seeded approximately 24 h before PDT. Media was aspirated and replaced with equal volumes of the respective PS treatment. For the purpose of background subtraction, PS treatments were also added to wells without cells. Following 3 h of incubation (37 °C, 5% CO2:95% air), plates were irradiated for 15 min on a 15 W light box (UVP, Cambridge, UK). […]
(§5) Cell viability was assessed by the colorimetric WST-8 assay. […] The plates were incubated for 3 h (37 °C, 5% CO2:95% air) and then analyzed at 450 nm using a Clariostar Plate Reader (BMG Labtech, Ortenberg, Germany). Corrected absorbance was calculated in each case by subtraction of the media only controls. […]
For orientation: Tetrazolium dyes change colour on reduction, which living cells bring about.

Data set [3] relates to NCI-H28 cells. Briefly: WST-8 cell viability assay after PDT, NCI-H28. Format: cell-based, human. Conditions: Homo sapiens; NCI-H28, 5 μg/mL, light, 48 h; read-out: cell viability relative to untreated control. The protocol: as §3, §4, §5
For data set [4], the system named is MSTO-211H cells. Kind of data set: WST-8 cell viability assay after PDT, MSTO-211H. Conditions: Homo sapiens, 5 μg/mL, light, 48 h, read-out: cell viability relative to untreated control. Format: cell-based, human. Here is the method: as §3
(§6) Cells were detached using a trypsin/EDTA solution (Lonza). Trypan blue (0.4% v/v) exclusion was used to count viable cells before seeded into 96-well plates (Nunc) at a density of 5 × 10^3 cells per well in 200 μL of complete RPMI. Cell culture plates were seeded approximately 24 h before PDT. Media was aspirated and replaced with equal volumes of the respective PS treatment. For the purpose of background subtraction, PS treatments were also added to wells without cells. Following 3 h of incubation (37 °C, 5% CO2:95% air), plates were irradiated for 15 min on a 15 W light box (UVP, Cambridge, UK). Experiments performed parallel to dark-treated control plates.
(§7) Cell viability was assessed by the colorimetric WST-8 assay. […] The plates were incubated for 3 h (37 °C, 5% CO2:95% air) and then analyzed at 450 nm using a Clariostar Plate Reader (BMG Labtech, Ortenberg, Germany). Corrected absorbance was calculated in each case by subtraction of the media only controls. Finally, percentage cell viability was expressed relative to untreated control values.

Data set [5] in a line: WST-8 cell viability assay after PDT, MSTO-211H. The data set is classed as cell-based, human. The settings on record: human, MSTO-211H cells, dark; for viability at 48 h, 5 μg/mL: read-out: cell viability relative to untreated control. The protocol: as §3, §6, §7
The test system of data set [6] is MSTO-211H cells. Kind of data set: Annexin V-FITC/PI cell death analysis by flow cytometry, MSTO-211H. The data set is classed as cell-based, human. Conditions: light; for EC50: read-out: EC50 (50% reduction in viable cell populations), PDT activity. The protocol:
as §1, §2
On the technique in general: A flow cytometer gives signals particle by particle.

Assay in data set [7]: as above
The data set is classed as cell-based, human. The settings on record: human, MSTO-211H cells, dark, 48 h, read-out: viable cells. The protocol: as §1, §2

The nature of data set [8]: WST-8 cell viability assay after PDT, Met-5a. The settings on record: human, Met-5a cells, light, read-out: cell viability relative to untreated control. The data set is classed as cell-based. Here is the method: as §3, §6
Cell viability was assessed by the colorimetric WST-8 assay. Following 24 h of incubation (37 °C, 5% CO2:95% air), 10 μL of WST-8 was added to each cell-containing well of the 96-well plates. The plates were incubated for 3 h (37 °C, 5% CO2:95% air) and then analyzed at 450 nm using a Clariostar Plate Reader (BMG Labtech, Ortenberg, Germany). Corrected absorbance was calculated in each case by subtraction of the media only controls. Finally, percentage cell viability was expressed relative to untreated control values.

The nature of data set [9]: UV/vis absorbance spectroscopy in DMSO, water and 1 M HCl (stacking, aqueous solubility). The settings on record: absorption spectra in water vs DMSO and 1 M HCl. The data set is classed as physicochemical. The protocol: UV/vis absorbance spectroscopy in DMSO, water and 1 M HCl. For each of the porphyrins 5, 6, and 7, 5 mg, was dissolved in 30 µL of 1 M NaOH H this was diluted to 5 mL with distilled to give stock solutions of concentrations 0.926 mM, 0.88 mM and 0.77 mM, respectively. In a quartz 96 well plate, 20 µL was added to a well and diluted to a volume of 320 µL with either DMSO, water or 1 M HCl.

Data set [10] is described as follows: Annexin V-FITC/PI cell death analysis by flow cytometry, NCI-H28. Format: cell-based, human. The settings on record: human, NCI-H28 cells, read-out: viable cells. Here is the method: as §1, §2
The test system of data set [11] is NCI-H28 cells. Described as above. Conditions: light; for EC50: read-out: EC50 (50% reduction in viable cell populations), PDT activity. Format: cell-based, human. Here is the method: as §1, §2
For data set [12], the system named is MSTO-211H cells. Briefly: Cellular localization by high content fluorescence microscopy. The data set is classed as cell-based, human. The settings on record: 24 h incubation. The protocol: Cells were harvested in accordance with methods previously described and seeded into 24-well plates (Nunc, London, UK) at a density of 25,000 treated with porphyrin working solutions made up from the porphyrin PS stock solutions and incubated for 24 h. The cells were visualized using a Cytation 5 (Agilent Technologies, Cheadle, UK) high content microscopy platform at 20× magnification.

Where [13] appears, read: Homo sapiens, 24 h, 24 h time point.
The mark [14] stands for this setting: Homo sapiens, 48 h, 48 h time point.
The mark [15] stands for this setting: Homo sapiens, NCI-H28, 24 h, NCI-H28, 24 h time point.
Where [16] appears, read: Homo sapiens, NCI-H28, 48 h, NCI-H28, 48 h time point.
Setting [17] is: 20 μg/mL, time point not stated.

Values after ≈ are worked out from the molar mass of the structure shown. Where two headings read alike, the source gives them in different places. Marks after values point to notes of the source that are not given here. Some results are limits rather than exact numbers.

`O=C(O)CCCCOc1cccc(-c2c3nc(c(-c4cccc(OCCCCC(=O)O)c4)c4ccc([nH]4)c(-c4cccc(OCCCCC(=O)O)c4)c4nc(c(-c5cccc(OCCCCC(=O)O)c5)c5ccc2[nH]5)C=C4)C=C3)c1` [C5SHU]: the cell death result in [1] (24 h, all dose concentrations) is “no significant cell death”. In addition, the dark toxicity entry in [1] (24 h, all dose concentrations) is listed as “negligible dark toxicity”; in [1] (48 h) it was “Negligible dark toxicity”. For the same compound, the “predominant mode of cell death” value in [1] (48 h, light) is “necrosis”. Moreover, the EC50 in [1] (24 h time point, light) is greater than 20 µg/mL; in data set [1] (48 h time point, light) it was 5.1 ± 1 µg/mL (≈ 4.73 µM); in [6] (setting [13]) it was 7.7 µg/mL (≈ 7.13 µM); in data set [6] (setting [14]), 2.8 ± 1.5 µg/mL (≈ 2.59 µM); in data set [11] (setting [15]), 7.8 µg/mL (≈ 7.23 µM); in data set [11] (setting [16]), 6 ± 1 µg/mL (≈ 5.56 µM). In addition, the viability at 48 h, 5 μg/mL in data set [2] is 116%; in [5], 100%; in data set [8], roughly 11%. For the same compound, the figures for the viability at 5 µg/mL in [3] and in data set [4] were 16% and 22%, respectively. For the same compound, the viability at 48 h, 15 μg/mL was 30% in data set [5] (15 μg/mL, read-out: dark toxicity (cell viability)) and 63.6% in data set [7] (15 μg/mL). Besides, the viability at 48 h, 20 μg/mL in [5] (20 μg/mL, read-out: dark toxicity (cell viability)) turned out to be 26%; in data set [7] (20 μg/mL), 46.1%. The apoptotic cell population in data set [6] (10 μg/mL, 24 h) came to 49%; in data set [11] (NCI-H28, 10 μg/mL, 24 h), 16%. Moreover, the necrotic cell population in [6] (10 μg/mL, 24 h) was 34%; in data set [11] (NCI-H28, 10 μg/mL, 24 h), 53%. The “EC50 (50% reduction in viable cell populations), PDT activity” value in data set [6] (24 h time point) is 7.8 ± 3 µg/mL (≈ 7.23 µM); in data set [11] (NCI-H28, 24 h time point), 7.7 ± 1 µg/mL (≈ 7.13 µM). The viability at 24 h, 5 μg/mL in data set [8] is roughly 28%. In addition, the “stacking in aqueous solutions” value in [9] is given as “least evidence of stacking”. Moreover, the viability in [10] (NCI-H28, dark, unchanged with porphyrin dose) is roughly 95%.
As to `O=C(O)CCCCCOc1cccc(-c2c3nc(c(-c4cccc(OCCCCCC(=O)O)c4)c4ccc([nH]4)c(-c4cccc(OCCCCCC(=O)O)c4)c4nc(c(-c5cccc(OCCCCCC(=O)O)c5)c5ccc2[nH]5)C=C4)C=C3)c1` [C6SHU], the EC50 in [1] (24 h time point, light) is greater than 20 µg/mL; in data set [1] (48 h time point, light), greater than 20 µg/mL; in [6] (setting [13]), 14 µg/mL (≈ 12.3 µM); in data set [6] (setting [14]), 14 ± 4 µg/mL (≈ 12.3 µM); in [11] (setting [15]) it was greater than 20 µg/mL; in data set [11] (setting [16]), greater than 20 µg/mL. For the same compound, the viability at 5 µg/mL in [4] stood at 38%. Besides, in data set [5], the viability at 48 h, 5 μg/mL was determined as 119%. In [6] (setting [17]), the apoptotic cell population turned out to be 23%. Besides, the necrotic cell population in data set [6] (setting [17]) turned out to be 50%. Moreover, the viability at 20 µg/mL in data set [6] (Homo sapiens, 20 μg/mL, time point not stated, read-out: viable cell population) is 20%; in data set [11] (Homo sapiens, NCI-H28, 20 μg/mL, time point not stated, read-out: viable cells), 59%. In addition, in data set [11] (Homo sapiens, NCI-H28, NCI-28 as printed, time point not stated, read-out: IC50, PDT effect), the IC50 was greater than 20 µg/mL.
Consider `O=C(O)CCCCCCOc1cccc(-c2c3nc(c(-c4cccc(OCCCCCCC(=O)O)c4)c4ccc([nH]4)c(-c4cccc(OCCCCCCC(=O)O)c4)c4nc(c(-c5cccc(OCCCCCCC(=O)O)c5)c5ccc2[nH]5)C=C4)C=C3)c1` [C7SHU], for which the EC50 in data set [1] (24 h time point, light) is greater than 20 µg/mL; in data set [1] (48 h time point, light), greater than 20 µg/mL; in [6] (setting [13]), 9.6 ± 3 µg/mL (≈ 8.06 µM); in data set [6] (setting [14]), 7.7 ± 2 µg/mL (≈ 6.46 µM); in data set [11] (setting [15]), greater than 20 µg/mL; in [11] (setting [16]), greater than 20 µg/mL. Moreover, in data set [12], the cellular localization result is “localize in the cytosolic region”. The viability at 24 h, 5 μg/mL in [8] is 66%. In data set [8], the viability at 48 h, 5 μg/mL turned out to be 30%. For the same compound, the viability at 48 h, 10 μg/mL in data set [10] (NCI-H28, 10 μg/mL, 48 h) was 75%. Further, in data set [11] (NCI-H28, 24 h time point), the “EC50 (50% reduction in viable cell populations), PDT activity” value is reported as >20 ^a μg/mL.
